What was measured:
[1] = biological target: Ephrin type-B receptor 1 (Homo sapiens) (UniProt P54762); conditions: Compound concentration 1000.0 nM
[2] = biological target: Ribosomal protein S6 kinase alpha-2 (Homo sapiens) (UniProt Q15349); conditions: Compound concentration 1000.0 nM
[3] = biological target: Protein-tyrosine kinase 6 (Homo sapiens) (UniProt Q13882); conditions: Compound concentration 1000.0 nM
[4] = biological target: SNF-related serine/threonine-protein kinase (Homo sapiens) (UniProt Q9NRH2); conditions: Compound concentration 1000.0 nM
[5] = biological target: AP2-associated protein kinase 1 (Homo sapiens) (UniProt Q2M2I8); conditions: Compound concentration 1000.0 nM
[6] = biological target: Cyclin-dependent kinase 18 (Homo sapiens) (UniProt Q07002); conditions: Compound concentration 1000.0 nM
[7] = biological target: Serine/threonine-protein kinase DCLK3 (Homo sapiens) (UniProt Q9C098); conditions: Compound concentration 1000.0 nM
[8] = biological target: Serine/threonine-protein kinase MARK1 (Homo sapiens) (UniProt Q9P0L2); conditions: Compound concentration 1000.0 nM
[9] = biological target: Platelet-derived growth factor receptor alpha (Homo sapiens) (UniProt P16234); conditions: Compound concentration 1000.0 nM
[10] = test system: Epidermal growth factor receptor (Homo sapiens), P00533 [UNDEFINED MUTATION]; conditions: Compound concentration 1000.0 nM
[11] = biological target: Peripheral plasma membrane protein CASK (Homo sapiens) (UniProt O14936); conditions: Compound concentration 1000.0 nM
[12] = test system: Mast/stem cell growth factor receptor Kit (Homo sapiens), P10721 [V559D,T670I]; conditions: Compound concentration 1000.0 nM
[13] = biological target: Interferon-induced, double-stranded RNA-activated protein kinase (Homo sapiens) (UniProt P19525); conditions: Compound concentration 1000.0 nM
Sequence of Interferon-induced, double-stranded RNA-activated protein kinase (Homo sapiens) (P19525 whole entry): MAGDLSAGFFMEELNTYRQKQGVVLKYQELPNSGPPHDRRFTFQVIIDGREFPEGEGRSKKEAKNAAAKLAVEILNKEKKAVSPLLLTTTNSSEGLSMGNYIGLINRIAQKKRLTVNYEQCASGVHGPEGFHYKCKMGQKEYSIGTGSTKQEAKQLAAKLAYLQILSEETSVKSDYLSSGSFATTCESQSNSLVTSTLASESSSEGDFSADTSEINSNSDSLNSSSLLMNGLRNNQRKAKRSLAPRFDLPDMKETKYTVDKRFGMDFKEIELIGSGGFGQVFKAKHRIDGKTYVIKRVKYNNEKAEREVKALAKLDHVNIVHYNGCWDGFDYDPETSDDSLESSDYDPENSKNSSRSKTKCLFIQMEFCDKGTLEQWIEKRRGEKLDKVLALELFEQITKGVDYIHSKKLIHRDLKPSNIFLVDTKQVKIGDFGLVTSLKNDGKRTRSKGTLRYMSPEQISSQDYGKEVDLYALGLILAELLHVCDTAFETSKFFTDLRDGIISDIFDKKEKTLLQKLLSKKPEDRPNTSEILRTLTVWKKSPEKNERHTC

[14] = biological target: Serine/threonine-protein kinase D1 (Homo sapiens) (UniProt Q15139); conditions: Compound concentration 1000.0 nM
[15] = biological target: Serine/threonine-protein kinase STK11 (Homo sapiens) (UniProt Q15831); conditions: Compound concentration 1000.0 nM
[16] = biological target: Mitogen-activated protein kinase kinase kinase 7 (Homo sapiens) (UniProt O43318); conditions: Compound concentration 1000.0 nM
Sequence of Mitogen-activated protein kinase kinase kinase 7 (Homo sapiens) (O43318 whole entry): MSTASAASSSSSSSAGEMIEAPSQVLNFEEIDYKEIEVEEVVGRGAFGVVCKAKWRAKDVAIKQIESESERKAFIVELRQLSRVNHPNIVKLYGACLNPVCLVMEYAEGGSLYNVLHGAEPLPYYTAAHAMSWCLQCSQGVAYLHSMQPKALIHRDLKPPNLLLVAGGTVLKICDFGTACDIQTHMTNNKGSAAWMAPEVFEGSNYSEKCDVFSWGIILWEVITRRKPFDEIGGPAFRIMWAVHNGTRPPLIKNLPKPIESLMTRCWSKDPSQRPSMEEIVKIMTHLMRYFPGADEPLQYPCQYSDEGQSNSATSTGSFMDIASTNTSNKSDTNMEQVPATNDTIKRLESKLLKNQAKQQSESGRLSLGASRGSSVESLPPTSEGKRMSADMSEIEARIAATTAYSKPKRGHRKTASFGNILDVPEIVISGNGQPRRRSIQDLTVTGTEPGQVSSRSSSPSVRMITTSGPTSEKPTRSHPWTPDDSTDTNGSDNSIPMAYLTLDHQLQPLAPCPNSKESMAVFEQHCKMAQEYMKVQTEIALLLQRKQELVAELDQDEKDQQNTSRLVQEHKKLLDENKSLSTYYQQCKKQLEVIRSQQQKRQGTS

[17] = biological target: Bone morphogenetic protein receptor type-2 (Homo sapiens) (UniProt Q13873); conditions: Compound concentration 1000.0 nM
[18] = test system: Tyrosine-protein kinase ABL1 (Homo sapiens), P00519 [Q252H]; conditions: Compound concentration 1000.0 nM
[19] = biological target: Ephrin type-A receptor 3 (Homo sapiens) (UniProt P29320); conditions: Compound concentration 1000.0 nM
Sequence of Ephrin type-A receptor 3 (Homo sapiens) (P29320 whole entry): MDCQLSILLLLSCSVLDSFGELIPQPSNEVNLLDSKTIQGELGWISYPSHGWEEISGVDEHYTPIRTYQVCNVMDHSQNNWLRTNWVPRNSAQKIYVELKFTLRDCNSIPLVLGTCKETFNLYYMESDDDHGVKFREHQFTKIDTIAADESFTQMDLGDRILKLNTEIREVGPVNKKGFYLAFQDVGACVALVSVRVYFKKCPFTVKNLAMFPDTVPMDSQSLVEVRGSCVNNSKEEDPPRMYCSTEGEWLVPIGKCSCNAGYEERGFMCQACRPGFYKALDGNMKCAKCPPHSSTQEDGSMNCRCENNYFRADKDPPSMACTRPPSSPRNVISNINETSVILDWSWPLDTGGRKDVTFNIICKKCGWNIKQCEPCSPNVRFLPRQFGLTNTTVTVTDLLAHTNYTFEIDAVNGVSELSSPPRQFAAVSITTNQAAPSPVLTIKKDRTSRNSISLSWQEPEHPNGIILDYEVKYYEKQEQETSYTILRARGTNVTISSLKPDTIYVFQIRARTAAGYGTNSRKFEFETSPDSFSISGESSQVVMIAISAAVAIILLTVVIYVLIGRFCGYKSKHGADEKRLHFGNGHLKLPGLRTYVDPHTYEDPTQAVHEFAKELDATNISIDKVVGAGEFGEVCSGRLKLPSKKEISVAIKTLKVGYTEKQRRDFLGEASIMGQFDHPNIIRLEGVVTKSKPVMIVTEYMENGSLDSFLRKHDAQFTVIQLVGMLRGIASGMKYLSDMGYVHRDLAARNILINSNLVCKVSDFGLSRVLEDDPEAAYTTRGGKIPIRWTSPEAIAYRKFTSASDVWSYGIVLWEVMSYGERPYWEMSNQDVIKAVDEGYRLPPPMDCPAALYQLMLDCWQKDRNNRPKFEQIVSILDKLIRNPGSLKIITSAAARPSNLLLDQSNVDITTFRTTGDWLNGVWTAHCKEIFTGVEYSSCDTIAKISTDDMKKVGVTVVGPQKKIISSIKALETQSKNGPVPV

[20] = biological target: Serine/threonine-protein kinase ULK3 (Homo sapiens) (UniProt Q6PHR2); conditions: Compound concentration 1000.0 nM
[21] = test system: Hepatocyte growth factor receptor (Homo sapiens), P08581 [M1250T]; conditions: Compound concentration 1000.0 nM
[22] = biological target: Ribosomal protein S6 kinase alpha-6 (Homo sapiens) (UniProt Q9UK32); conditions: Compound concentration 1000.0 nM
[23] = biological target: Protein kinase C iota type (Homo sapiens) (UniProt P41743); conditions: Compound concentration 1000.0 nM
Sequence of Protein kinase C iota type (Homo sapiens) (P41743 whole entry): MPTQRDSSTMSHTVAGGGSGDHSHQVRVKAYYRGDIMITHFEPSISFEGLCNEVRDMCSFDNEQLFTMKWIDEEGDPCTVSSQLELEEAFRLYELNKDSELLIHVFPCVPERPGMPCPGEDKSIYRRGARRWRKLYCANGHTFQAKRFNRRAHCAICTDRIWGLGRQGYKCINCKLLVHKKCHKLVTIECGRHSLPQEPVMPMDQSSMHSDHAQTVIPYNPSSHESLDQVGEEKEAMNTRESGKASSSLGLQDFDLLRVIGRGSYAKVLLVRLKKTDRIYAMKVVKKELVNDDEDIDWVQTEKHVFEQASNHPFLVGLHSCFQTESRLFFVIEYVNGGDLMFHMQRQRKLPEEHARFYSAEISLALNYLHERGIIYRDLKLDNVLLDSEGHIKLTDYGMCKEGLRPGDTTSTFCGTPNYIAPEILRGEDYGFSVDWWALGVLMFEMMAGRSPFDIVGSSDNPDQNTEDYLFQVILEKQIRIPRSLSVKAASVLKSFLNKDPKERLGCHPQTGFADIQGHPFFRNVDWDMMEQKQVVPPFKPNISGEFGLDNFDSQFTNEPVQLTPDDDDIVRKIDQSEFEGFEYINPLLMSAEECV

[24] = test system: Mast/stem cell growth factor receptor Kit (Homo sapiens), P10721 [A829P]; conditions: Compound concentration 1000.0 nM
[25] = biological target: Myosin light chain kinase (Homo sapiens) (UniProt Q32MK0); conditions: Compound concentration 1000.0 nM
[26] = biological target: Ribosomal protein S6 kinase alpha-5 (Homo sapiens) (UniProt O75582); conditions: Compound concentration 1000.0 nM
Sequence of Ribosomal protein S6 kinase alpha-5 (Homo sapiens) (O75582 whole entry, looked up): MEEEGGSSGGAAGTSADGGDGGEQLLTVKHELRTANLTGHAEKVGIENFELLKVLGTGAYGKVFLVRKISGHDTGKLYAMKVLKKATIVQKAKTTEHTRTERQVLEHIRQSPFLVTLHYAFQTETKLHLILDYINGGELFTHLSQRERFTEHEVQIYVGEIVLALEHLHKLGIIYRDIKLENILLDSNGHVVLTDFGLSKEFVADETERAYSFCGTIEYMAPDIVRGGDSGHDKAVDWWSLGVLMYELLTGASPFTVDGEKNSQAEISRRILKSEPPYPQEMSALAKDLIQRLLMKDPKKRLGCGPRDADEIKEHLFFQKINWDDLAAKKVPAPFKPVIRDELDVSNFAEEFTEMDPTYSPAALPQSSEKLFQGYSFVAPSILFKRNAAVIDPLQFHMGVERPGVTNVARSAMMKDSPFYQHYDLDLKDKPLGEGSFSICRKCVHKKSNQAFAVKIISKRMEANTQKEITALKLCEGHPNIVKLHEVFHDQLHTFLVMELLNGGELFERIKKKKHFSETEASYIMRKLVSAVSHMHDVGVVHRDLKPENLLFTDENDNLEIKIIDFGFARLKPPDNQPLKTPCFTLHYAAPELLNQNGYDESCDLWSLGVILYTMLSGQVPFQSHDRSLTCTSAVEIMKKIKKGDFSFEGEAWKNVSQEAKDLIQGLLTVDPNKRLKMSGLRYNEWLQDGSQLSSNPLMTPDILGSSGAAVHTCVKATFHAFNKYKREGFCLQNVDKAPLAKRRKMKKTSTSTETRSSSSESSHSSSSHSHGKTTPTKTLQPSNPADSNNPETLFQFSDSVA

[27] = biological target: Receptor-interacting serine/threonine-protein kinase 1 (Homo sapiens) (UniProt Q13546); conditions: Compound concentration 1000.0 nM
[28] = biological target: Rhodopsin kinase GRK7 (Homo sapiens) (UniProt Q8WTQ7); conditions: Compound concentration 1000.0 nM
[29] = biological target: Serine/threonine-protein kinase tousled-like 1 (Homo sapiens) (UniProt Q9UKI8); conditions: Compound concentration 1000.0 nM
[30] = biological target: Ribosomal protein S6 kinase alpha-5 (Homo sapiens) (UniProt O75582); conditions: Compound concentration 1000.0 nM; remark: listed apart in the source
[31] = test system: Receptor-type tyrosine-protein kinase FLT3 (Homo sapiens), P36888 [D835H]; conditions: Compound concentration 1000.0 nM
[32] = biological target: Mitogen-activated protein kinase kinase kinase 20 (Homo sapiens) (UniProt Q9NYL2); conditions: Compound concentration 1000.0 nM
[33] = biological target: 5-hydroxytryptamine receptor 1E (Homo sapiens) (UniProt P28566); conditions: Compound concentration 10.0 uM
[34] = biological target: cAMP-dependent protein kinase catalytic subunit beta (Homo sapiens) (UniProt P22694); conditions: Compound concentration 1000.0 nM
[35] = biological target: Platelet-derived growth factor receptor beta (Homo sapiens) (UniProt P09619); conditions: Compound concentration 1000.0 nM
[36] = biological target: Fibroblast growth factor receptor 3 (Homo sapiens) (UniProt P22607); conditions: Compound concentration 1000.0 nM
[37] = biological target: Dual specificity tyrosine-phosphorylation-regulated kinase 1B (Homo sapiens) (UniProt Q9Y463); conditions: Compound concentration 1000.0 nM
Sequence of Dual specificity tyrosine-phosphorylation-regulated kinase 1B (Homo sapiens) (Q9Y463 whole entry, looked up): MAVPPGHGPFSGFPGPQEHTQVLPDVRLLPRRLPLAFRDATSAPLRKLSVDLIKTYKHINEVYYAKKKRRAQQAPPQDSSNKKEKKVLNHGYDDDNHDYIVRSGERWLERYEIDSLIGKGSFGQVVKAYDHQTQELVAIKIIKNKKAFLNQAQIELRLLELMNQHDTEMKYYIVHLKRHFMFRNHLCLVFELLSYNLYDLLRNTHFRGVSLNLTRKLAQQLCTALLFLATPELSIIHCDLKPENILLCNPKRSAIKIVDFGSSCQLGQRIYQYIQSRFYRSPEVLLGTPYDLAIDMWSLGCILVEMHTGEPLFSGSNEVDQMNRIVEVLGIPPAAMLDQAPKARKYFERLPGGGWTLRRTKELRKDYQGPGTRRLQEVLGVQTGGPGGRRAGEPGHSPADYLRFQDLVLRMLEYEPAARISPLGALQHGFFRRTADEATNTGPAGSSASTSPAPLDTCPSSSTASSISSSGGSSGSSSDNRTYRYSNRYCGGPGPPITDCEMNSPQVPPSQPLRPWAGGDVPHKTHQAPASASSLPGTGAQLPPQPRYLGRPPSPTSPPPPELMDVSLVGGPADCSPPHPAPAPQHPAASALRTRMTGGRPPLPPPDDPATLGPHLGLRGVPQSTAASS

[38] = biological target: Serine/threonine-protein kinase pim-2 (Homo sapiens) (UniProt Q9P1W9); conditions: Compound concentration 1000.0 nM
[39] = biological target: MAP kinase-interacting serine/threonine-protein kinase 2 (Homo sapiens) (UniProt Q9HBH9); conditions: Compound concentration 1000.0 nM
[40] = biological target: Serine/threonine-protein kinase D2 (Homo sapiens) (UniProt Q9BZL6); conditions: Compound concentration 1000.0 nM
[41] = biological target: Uncharacterized serine/threonine-protein kinase SBK3 (Homo sapiens) (UniProt P0C264); conditions: Compound concentration 1000.0 nM
Sequence of Uncharacterized serine/threonine-protein kinase SBK3 (Homo sapiens) (P0C264 whole entry): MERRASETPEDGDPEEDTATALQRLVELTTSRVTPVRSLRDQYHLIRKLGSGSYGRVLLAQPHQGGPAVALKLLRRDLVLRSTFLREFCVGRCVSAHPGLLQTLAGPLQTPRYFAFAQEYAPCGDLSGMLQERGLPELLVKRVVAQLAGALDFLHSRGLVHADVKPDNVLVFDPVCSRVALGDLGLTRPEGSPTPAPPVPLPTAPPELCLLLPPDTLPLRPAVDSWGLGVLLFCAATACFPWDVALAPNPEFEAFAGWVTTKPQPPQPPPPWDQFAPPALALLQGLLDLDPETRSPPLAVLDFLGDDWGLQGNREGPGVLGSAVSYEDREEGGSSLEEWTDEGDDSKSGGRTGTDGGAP

[42] = biological target: Casein kinase II subunit alpha (Homo sapiens) (UniProt P68400); conditions: Compound concentration 1000.0 nM
[43] = biological target: D(4) dopamine receptor (Homo sapiens) (UniProt P21917); conditions: Compound concentration 10.0 uM
[44] = biological target: Mitogen-activated protein kinase 8 (Homo sapiens) (UniProt P45983); conditions: Compound concentration 1000.0 nM
[45] = biological target: Serine/threonine-protein kinase RIO1 (Homo sapiens) (UniProt Q9BRS2); conditions: Compound concentration 1000.0 nM

Sequence of Protein-tyrosine kinase 6 (Homo sapiens) (Q13882 whole entry, looked up): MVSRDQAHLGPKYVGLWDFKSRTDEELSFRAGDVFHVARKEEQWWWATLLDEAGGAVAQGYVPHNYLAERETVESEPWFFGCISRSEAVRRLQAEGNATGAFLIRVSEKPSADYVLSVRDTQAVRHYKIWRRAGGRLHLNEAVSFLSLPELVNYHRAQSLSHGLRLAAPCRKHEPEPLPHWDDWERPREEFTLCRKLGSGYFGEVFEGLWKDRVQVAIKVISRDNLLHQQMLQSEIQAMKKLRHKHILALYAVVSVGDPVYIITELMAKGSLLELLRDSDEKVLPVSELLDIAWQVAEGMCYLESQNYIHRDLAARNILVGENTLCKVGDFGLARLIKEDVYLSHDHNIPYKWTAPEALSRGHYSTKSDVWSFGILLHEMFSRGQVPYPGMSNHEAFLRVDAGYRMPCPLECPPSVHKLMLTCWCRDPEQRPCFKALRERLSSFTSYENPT

Compound: COc1ccc2c(O[C@@H]3C[C@H]4C(=O)N[C@]5(C(=O)O)CC5/C=C\CCCCC[C@H](NC(=O)OC5CCCC5)C(=O)N4C3)cc(-c3csc(NC(=O)C(C)C)n3)nc2c1C (stereo not given in full) [BI 1230]
- residual activity [1]: 100%
- residual activity [2]: 100%
- residual activity [3]: 97%
- residual activity [4]: 80%
- residual activity [5]: 100%
- residual activity [6]: 100%
- residual activity [7]: 96%
- residual activity [8]: 100%
- residual activity [9]: 84%
- residual activity [10]: 75%
- residual activity [11]: 97%
- residual activity [12]: 76%
- residual activity [13]: 100%
- residual activity [14]: 89%
- residual activity [15]: 100%
- residual activity [16]: 67%
- residual activity [17]: 84%
- residual activity [18]: 80%
- residual activity [19]: 97%
- residual activity [20]: 93%
- residual activity [21]: 100%
- residual activity [22]: 100%
- residual activity [23]: 96%
- residual activity [24]: 100%
- residual activity [25]: 100%
- residual activity [26]: 100%
- residual activity [27]: 100%
- residual activity [28]: 87%
- residual activity [29]: 100%
- residual activity [30]: 100%
- residual activity [31]: 73%
- residual activity [32]: 83%
- inhibition [33]: 14.9%
- residual activity [34]: 100%
- residual activity [35]: 94%
- residual activity [36]: 100%
- residual activity [37]: 74%
- residual activity [38]: 100%
- residual activity [39]: 70%
- residual activity [40]: 95%
- residual activity [41]: 99%
- residual activity [42]: 81%
- inhibition [43]: 24.6%
- residual activity [44]: 81%
- residual activity [45]: 93%

Compound: O=C(N[C@H]1CCCCC/C=C\C2C[C@@]2(C(=O)O)NC(=O)[C@@H]2C[C@@H](Oc3ccncc3)CN2C1=O)OC1CCCC1 (stereo not given in full) [BI 1675]
- residual activity [1]: 100%
- residual activity [2]: 75%
- residual activity [3]: 100%
- residual activity [4]: 97%
- residual activity [5]: 77%
- residual activity [6]: 92%
- residual activity [7]: 100%
- residual activity [8]: 100%
- residual activity [9]: 99%
- residual activity [10]: 49%
- residual activity [11]: 89%
- residual activity [12]: 100%
- residual activity [13]: 100%
- residual activity [14]: 96%
- residual activity [15]: 85%
- residual activity [16]: 77%
- residual activity [17]: 100%
- residual activity [18]: 85%
- residual activity [19]: 86%
- residual activity [20]: 82%
- residual activity [21]: 92%
- residual activity [22]: 86%
- residual activity [23]: 100%
- residual activity [24]: 98%
- residual activity [25]: 75%
- residual activity [26]: 89%
- residual activity [27]: 88%
- residual activity [28]: 100%
- residual activity [29]: 82%
- residual activity [30]: 78%
- residual activity [31]: 56%
- residual activity [32]: 90%
- inhibition [33]: 0%
- residual activity [34]: 100%
- residual activity [35]: 87%
- residual activity [36]: 88%
- residual activity [37]: 46%
- residual activity [38]: 100%
- residual activity [39]: 75%
- residual activity [40]: 100%
- residual activity [41]: 79%
- residual activity [42]: 83%
- inhibition [43]: 9.26%
- residual activity [44]: 86%
- residual activity [45]: 63%

From ChEMBL document CHEMBL4507284, “Data for DCP probe BI-1230” (2021)
